Experimental data taken from ChEMBL document CHEMBL3507680, “University of Dundee, Gates Library screen for HepG2 cell viability”.

assay: Human HepG2 cell viability assay in 384 well format; format: toxicity, cell-based; set-up: dose 125 nL, time 70.5 hour; cytotoxicity at 70.5 h: concentration not given beside the values; conditions: HepG2 cells, read-out: Inhibition

| Structure (SMILES) | cytotoxicity at 70.5 h |
| --- | --- |
| Cc1noc(C)c1CN1Cc2cn(C)nc2C(COCC2CC2)C1 (stereo unspecified) | 14.4% |
| Cc1cc(C(=O)NC(CC(C)C)C(=O)Nc2cc[nH]n2)c(C)o1 (stereo unspecified) | 0.859% |
| O=C(c1cccnc1O)N(CCO)Cc1cc(Br)ccc1F | -9.73% |
| CCS(=O)(=O)N1CCC2(CC1)CCn1c(-c3cnn(C)c3)cnc12 | -13% |
| CC(O)CC(C)(C)CNC(=O)Nc1cnn(-c2ccccc2F)c1 (stereo unspecified) | -4.35% |
| CC(=O)c1cccc(NC(=O)CN2CCCCC2C2OCCO2)c1 (stereo unspecified) | -1.12% |
| CC(C)N(CC(N)=O)Cc1cccc(C(F)(F)F)c1 | -1.84% |
| O=C(Cn1cc(C(=O)O)cn1)Nc1c(Cl)cccc1Cl | -5.99% |
| COc1ccc(S(=O)(=O)NC(=O)COC2CCCCC2)cc1C | -4.48% |
| Nc1ncnc2c1ncn2[C@H]1CCN(Cc2ccsc2)CC[C@@H]1O | -6.05% |
| O=C1COC2(CCN(Cc3ccc(F)cc3)CC2)CN1 | 3.53% |
| O=C(c1ccc(F)cc1)N1CCC2(CC1)CC(N1CCOCC1)C2 | -13.1% |
| OC1CCCN(Cc2ccnc(-c3cccnc3)n2)C1 (stereo unspecified) | -4.64% |
| O=C(NCc1cccnc1-n1cncn1)c1cc(Cl)ccn1 | 12.4% |
| CC(C)N1CCC(CNC(=O)COc2ccc(F)cc2F)C1 (stereo unspecified) | 4.12% |
| Cc1csc(NC(=O)[C@@H]2C[C@H]3[C@H](CCN3c3ncccn3)O2)n1 | 18.3% |
| CCc1nc(C2CCCN2C(=O)c2nccnc2N)no1 (stereo unspecified) | -18.5% |
| O=c1cc(-c2cc(O)cc(CCC3CCCCN3)c2)cc[nH]1 (stereo unspecified) | -6.48% |
| CCN1CC(C(=O)NCCCc2nc(C)c(C)s2)CC1=O (stereo unspecified) | -9.75% |
| Cc1nc(-c2ccncc2)ncc1C(C)NC(=O)CN1CCCC1=O (stereo unspecified) | -5.92% |
| CN1CCC(Cc2cc(Nc3ccccn3)ncn2)CC1 | 10.1% |
| CNc1nc(CNC(=O)Nc2cccc(C(C)OC)c2)cs1 (stereo unspecified) | -4.31% |
| CC(=O)N1CCN(Cc2ccc(Cl)c(F)c2)CC(O)C1 (stereo unspecified) | 17.8% |
| CCc1nnc(CN2CCCN(C(=O)c3ccccn3)CC2)o1 | -10.8% |

| Structure (SMILES) | cytotoxicity at 70.5 h |
| --- | --- |
| COC(=O)c1sccc1S(=O)(=O)N1CCC(Oc2cccnn2)CC1 | -3.46% |
| CN(C(=O)NCc1ccncc1)C1CCCN(c2ccccc2)C1=O (stereo unspecified) | -4.3% |
| CCS(=O)(=O)CCN1CCC(N(C)Cc2noc(C(C)C)n2)C1 (stereo unspecified) | -5.52% |
| CC(O)CNCc1ccccc1C(F)(F)F (stereo unspecified) | -5.36% |
| CCS(=O)(=O)N1CCC(Nc2c(F)cc(C#N)cc2F)CC1 | -9.63% |
| COCC(=O)N1CCC2(CCCN(Cc3cnn(C)c3)C2)C1 (stereo unspecified) | -3.28% |
| O=C(NCCSc1ccccc1F)NCc1cccnc1 | -6.59% |
| COCc1cc(N(C)Cc2ccccn2)nc(C(C)(C)C)n1 | -10.1% |
| Cc1ccc(S(=O)(=O)NCCNC(=O)c2cncnc2C)cc1 | -2.92% |
| Cc1cccc(-c2nc(C)nn2CN2CCC3(CC2)OCCO3)c1 | 11.8% |
| O=C(NCCCN1CCOCC1)C1CCCN(Cc2ccco2)C1 (stereo unspecified) | -1.31% |
| COCCC1(CO)CCCN(CCCc2ccccc2)C1 (stereo unspecified) | 22.6% |
| CC(C)c1nnc(NC(=O)CSCc2cc(=O)n3ccccc3n2)s1 | -4.94% |
| Cc1nc(CN2CCCC(NCc3cccc(C(N)=O)c3)C2)no1 (stereo unspecified) | -3.45% |
| COCCNc1nc(N2CCOCC2)nc2nccnc12 | -4.36% |
| CN(Cc1cn[nH]c1-c1ccc(F)cc1)C(=O)CCC1CC1 | -13.8% |
| CCc1nnc2n1CCN(Cc1ncc(-c3ccccc3)o1)C2 | -13.5% |
| CN(C)[C@@H]1CCN(c2ncc(F)cn2)[C@H]1Cc1ccccc1 | -4.36% |
| COc1ccc(CN2C[C@H]3CN(c4ccsc4)C(=O)[C@H]3C2)cc1 | -20.7% |
| CSc1ccc(S(=O)(=O)N2CCCCC2CCNC(C)=O)cc1 (stereo unspecified) | -9.19% |
| Cc1nn(C)c2c(N(C)Cc3cccs3)nc(C3CC3)nc12 | 22.5% |
| CNC(=O)CN1CCC(NC(=O)Cn2cc(C)c3ccccc32)CC1 | 0.492% |
| Cc1ncsc1C(=O)NC1CCN(CC(=O)N(C)c2ccccc2)CC1 | -1.98% |
| OC(COCc1cccs1)Cn1cc(Cl)cn1 (stereo unspecified) | -1.21% |

| Structure (SMILES) | cytotoxicity at 70.5 h |
| --- | --- |
| CC(C)CCNC(=O)C(c1cccc(F)c1)N(C)C (stereo unspecified) | 3.05% |
| Cc1ccc(CNCc2nccn2C)c(OC(C)(C)C)c1 | -7.39% |
| CCCn1ccc(C(=O)Nc2ccc3c(c2)C(C)(C)C(=O)N3C)n1 | 13.3% |
| Cc1cnn(C2CCCN(C(=O)CCCOc3ccccc3F)C2)c1 (stereo unspecified) | -5.78% |
| CS(=O)(=O)N1CCC2(CN(C(=O)c3cccnc3)C2)C1 | -2.66% |
| CN(C)c1cccc(C(=O)N2CCn3c(nnc3C3CC3)C2)c1 | 19.2% |
| CCC(NS(=O)(=O)c1ccc(C(=O)NC2CC2)cc1)c1ccnn1C (stereo unspecified) | -7.49% |
| COCC1CCCCN1C(=O)c1cc(-c2cccc(OC)c2)n[nH]1 (stereo unspecified) | -6.73% |
| CCN1CCN(C)C(=O)C12CCN(C(=O)Cc1ccccn1)CC2 | 0.951% |
| COc1ccc(-c2cc3nn(CC(N)=O)c(=O)n3c(C)n2)cc1 | -7.26% |
| O=S(=O)(Cc1ccccc1)c1nnc(N2CCOCC2)s1 | -9.13% |
| Cc1noc(C)c1CCC(=O)Nc1ccn(C)n1 | 1.75% |
| Cc1nn(C)c(N(C)C)c1CNCCCN(C)S(C)(=O)=O | -6.18% |
| Cc1n[nH]c(CCC(=O)N2CCOC(Cc3ccccc3)C2)c1C (stereo unspecified) | -7.3% |
| CCOCc1nc2c(c(N(C)Cc3snnc3C)n1)CCNCC2 | -9.47% |
| C=C(C)CN1CCN(Cc2nccn2C)C(C)C1 (stereo unspecified) | 30.2% |
| Cc1ccc(CN(Cc2ccccn2)C(=O)[C@H]2CC[C@@H](N)C2)s1 | -10.2% |
| CCOCC1c2c(ncn2C)CCN1C(=O)c1cnc(C)cn1 (stereo unspecified) | -12% |
| CN1CCC(c2n[nH]c(=O)n2CC2CCCCC2)CC1 | -8.59% |
| O=C1CCc2cc(S(=O)(=O)NC(=O)c3ccc4c(c3)OCO4)ccc2N1 | -15.2% |
| COc1ccccc1CC(=O)N1CCC(NCc2ccc(C)o2)CC1 | -11.2% |
| Cc1ccc(NC(=O)c2ccc(=O)n(CC(=O)NC3CCCC3)n2)cc1 | 4.71% |
| CCOC(=O)C1CC2(CCCC2)N2CCC(=O)N12 (stereo unspecified) | 0.137% |
| O=C(c1ccsc1)N1CCC2(CCN2Cc2ccc(F)cc2)C1 (stereo unspecified) | -8.12% |

| Structure (SMILES) | cytotoxicity at 70.5 h |
| --- | --- |
| COCCN(Cc1ccncc1)C(=O)C1COc2ccccc2C1 (stereo unspecified) | -6.32% |
| Cc1n[nH]c2c1C(c1cc(F)cc(F)c1)SCC(=O)N2 (stereo unspecified) | 17.9% |
| COc1ccc(S(=O)(=O)NCCn2cnc(C)cc2=O)cc1C | -9.08% |
| N#Cc1ccc(CNC(=O)NC2CCN(CC(F)(F)F)C2)cc1 (stereo unspecified) | -5.15% |
| Cc1nc2c(c(NC3CCN(Cc4ccccc4)CC3)n1)CCNCC2 | 0.337% |
| COCCNC(=O)[C@H]1CN(c2nnc(C)s2)C[C@H]2OCC[C@@H]12 | -17.6% |
| Cc1nc(C2CCCCN2C(=O)c2ccccc2)ncc1C(=O)N(C)C (stereo unspecified) | -12% |
| Cc1n[nH]c(C)c1C1CCCN1C(=O)c1coc(Br)c1 (stereo unspecified) | -5.01% |
| c1cnc(N2CCC(OCCN3CCCCC3)C2)nc1 (stereo unspecified) | -10.2% |
| Cc1noc(C(C)C)c1C(=O)NCC(c1ccccc1)N(C)C (stereo unspecified) | -8.37% |
| CCCc1nnnn1CC(=O)NCc1cccc(C)c1 | -3.35% |
| O=C1CO[C@H]2CN(S(=O)(=O)c3ccccc3)C[C@H]2N1Cc1ccccn1 | -15% |
| c1cn(Cc2nnc(C3CCN(c4nccs4)CC3)n2C2CC2)cn1 | -4.16% |
| CCOCCC(=O)N1CCN(CC(C)O)CC1 (stereo unspecified) | 16% |
| Fc1ccc(-c2nnc(CNC3CCc4ncnn4C3)o2)cc1 (stereo unspecified) | -12.1% |
| CC(C)C(=O)NCc1ccnc(Oc2ccc(F)cc2)c1 | -5.04% |
| Cc1c(C(=O)NCC(F)(F)F)nnn1-c1ccccc1Cl | -3.49% |
| c1cc(COC[C@H]2CCC[C@]23CNCCO3)ccn1 | 0.216% |
| COc1cc(F)c(NC(=O)N(C)Cc2cc(C)on2)cc1F | -5.99% |
| CCC1=N[C@@]2(CC[C@@H]3CN(C(=O)Nc4ccc(F)cc4)C[C@@H]32)C(=O)N1 | 0.571% |
| CC(C)(CO)Nc1c(NCc2ccccn2)c(=O)c1=O | -8.21% |
| O=c1n(Cc2ccc(C(F)(F)F)cc2)nc2ncccn12 | 24.3% |
| COC(=O)c1cc(NC(=O)CCc2cscn2)ccc1C | -5.71% |
| C[C@@H]1CN(C2CCOCC2)C[C@]12CCN(c1cccnc1)C2=O | -5.4% |

| Structure (SMILES) | cytotoxicity at 70.5 h |
| --- | --- |
| CC(C)COc1cncc(NCC(O)c2ccco2)n1 (stereo unspecified) | 33.1% |
| Cc1cccc(C2(C(=O)NCCCn3cccn3)CC2)c1 | -5.49% |
| CCn1cc2c(n1)CN(Cc1ccc(F)cc1)CC2COCC1CC1 (stereo unspecified) | -1.9% |
| Cc1cnc(-c2nc(NC3CCCC3)ncc2-c2onc(C)c2C)cn1 | -4.47% |
| CN1CCN(CC2CC2)C(=O)c2cnc(N3CCCC3)nc21 | 15.9% |
| COc1cccc(OC)c1CN1CC(=O)N(c2ccc(C)cc2)CC1C (stereo unspecified) | 1.44% |
| Cc1cc(-c2noc(C3CCS(=O)(=O)C3)n2)ccc1F (stereo unspecified) | -11% |
| Cc1ccc(NC2COC3(CCN(Cc4ccn(C)n4)CC3)C2)nn1 (stereo unspecified) | -7.47% |
| CCc1ncnc(N(C)CC2CCCCO2)c1F (stereo unspecified) | 2.36% |
| O=C(Cn1cccnc1=O)NCC1Cc2ccccc2O1 (stereo unspecified) | -9.82% |
| Cc1cnc(CN2CCN(c3nc(C)cs3)C(C)C2)cn1 (stereo unspecified) | -16.4% |
| Cc1noc(C)c1CNC(=O)N1CCC(CO)CC1 | -3.59% |
| Cc1nnc(NCc2cccc(OCC3CCCO3)c2)c(C#N)c1C (stereo unspecified) | 29% |
| CC1CN(Cc2nnsc2Cl)CCN1c1nccs1 (stereo unspecified) | -19.1% |
| O=C(c1ccc(F)cc1F)N1CC[C@H](O)[C@@H](N2CCOCC2)CC1 | -13.9% |
| CS(=O)(=O)CCN1CCC(Nc2c(Cl)cccc2C#N)CC1 | -94% |
| Cc1occc1CNC(=O)C1(C)CCCN1C(=O)c1ccccc1 (stereo unspecified) | 2.74% |
| O=C1CO[C@@H]2CN(C3CCOCC3)C[C@H]2N1Cc1ccncc1 | 4.06% |
| CN(C)Cc1ccnc(C2CCCN2Cc2ccncc2)n1 (stereo unspecified) | 18.5% |
| Cc1cc(-c2cc(F)ccc2C(=O)O)nc(C2CCCCN2C(C)C)n1 (stereo unspecified) | -5.96% |
